Assay results reported in patent US10202371B2, “Oxazolidin-2-one-pyrimidine derivatives and the use thereof as phosphatidylinositol-3-kinase inhibitors” (Novartis AG, priority 2012, dated 2019).
pIC50: −log10 of the molar value. Where two headings read alike, the source gives them in different places.

System: SCL-1 cells
Test: BrdU cell proliferation assay SCL-1
Type: cell-based
Conditions: Homo sapiens, BrdU incorporation
Text: The SCL-1 and SCC12B2 are human cutaneous squamous cell carcinoma (SCC) cell lines derived from naturally occurring, poorly differentiated SCCs. The SCL-1 cell line was originally established in the lab of N. Fusenig at the Cancer Research Center in Heidelberg, and its growth characteristics in vitro in comparison to normal keratinocytes were described previously (Neely et al 1991). The SCC12B2 cell line was established as described previously (Rheinwald & Beckett 1981) from the facial skin of a transplant patient who received immunosuppressive therapy for 7 years. The human SCC cell line Detroit562 was obtained from American Tissue Culture Collection (ATCC). Detroit562 is referred to as Head & Neck squamous cell carcinomas (HNSCC) and was derived from a pharyngeal SCC tumor. […]
Cells of SCC or keratinocyte lines (Detroit562, SCC12B2, SCL1, HaCaT) were used for the proliferation assays when they had reached about 80% to 90% confluency. Cells were then harvested after trypsin-mediated dislodgement from culture flasks, washed in culture medium containing 10% FCS, counted in a hemocytometer and diluted complete culture medium with 5% FCS to obtain a cell density of 5×10^4 cells/ml. […] The cell proliferation was determined on the basis of incorporation of bromodesoxy-uridin (BrdU) into cellular DNA using the chemiluminescent BrdU Cell Proliferation ELISA (Roche article #11 669 915 001). […]

Compound: C[C@H]1[C@H](c2nccs2)OC(=O)N1c1cc(-c2cnc(N)nc2C(F)(F)F)nc(N2CCOCC2)n1 [Example 1, (4S,5R)-3-(2′-Amino-2-morpholin-4-yl-4′-trifluoromethyl-[4,5′]bipyrimidinyl-6-yl)-4-methyl-5-thiazol-2-yl-oxazolidin-2-one]
- pIC50 (measurement #1, read-out: anti-proliferative IC50 SCL-1 measurement #1): 6.45
- pIC50 (measurement #2, read-out: anti-proliferative IC50 SCL-1 measurement #2): 6.57
